# Tests used:
# Type in all cases: functional
# Pseudomonas aeruginosa = assay: Antimicrobial activity against Pseudomonas aeruginosa at 1 ug/ul after 24 hr by agar diffusion method
# Klebsiella pneumoniae = assay: Antimicrobial activity against Klebsiella pneumoniae at 1 ug/ul after 24 hr by agar diffusion method
# Bacillus subtilis = assay: Antimicrobial activity against Bacillus subtilis at 1 ug/ul after 24 hr by agar diffusion method
# Escherichia coli = assay: Antimicrobial activity against Escherichia coli at 1 ug/ul after 24 hr by agar diffusion method
# Staphylococcus aureus = assay: Antimicrobial activity against Staphylococcus aureus at 1 ug/ul after 24 hr by agar diffusion method
# Bacillus cereus = assay: Antimicrobial activity against Bacillus cereus at 1 ug/ul after 24 hr by agar diffusion method
# [1] = Antioxidant activity assessed as DPPH scavenging activity after 20 min by spectrophotometry
SMILES,IC50 [1],growth inhibition (GI) (Pseudomonas aeruginosa),growth inhibition (GI) (Klebsiella pneumoniae),growth inhibition (GI) (Bacillus subtilis),growth inhibition (GI) (Escherichia coli),growth inhibition (GI) (Staphylococcus aureus),growth inhibition (GI) (Bacillus cereus)
Cc1c(-c2ccccc2F)oc2ccccc2c1=O,208.3 µg/mL,47%,52%,26%,47%,55%,60%
Cc1cccc(-c2oc3ccccc3c(=O)c2C)c1,250 µg/mL,56%,70%,69%,50%,76%,80%
COc1cccc(-c2oc3ccccc3c(=O)c2C)c1,156.25 µg/mL,59%,40%,74%,50%,43%,65%
Cc1ccc(-c2oc3ccccc3c(=O)c2C)cc1,102.04 µg/mL,43%,60%,38%,42%,60%,62%
Cc1c(-c2ccccc2Cl)oc2ccccc2c1=O,192.3 µg/mL,44%,59%,25%,51%,57%,60%
Cc1c(-c2ccc(O)cc2)oc2ccccc2c1=O,104 µg/mL,37%,80%,56%,47%,74%,81%
COc1ccc2c(=O)c(C)c(-c3ccc(Cl)cc3)oc2c1,80.64 µg/mL,28%,87%,46%,28%,65%,90%
Cc1c(-c2ccccc2Br)oc2ccccc2c1=O,70.42 µg/mL,42%,78%,39%,34%,81%,80%
Cc1c(-c2ccc(Cl)cc2)oc2ccccc2c1=O,98.04 µg/mL,47%,81%,68%,33%,74%,85%
Cc1c(-c2ccc(Br)cc2)oc2ccccc2c1=O,111.11 µg/mL,51%,72%,82%,27%,58%,62%
O=C1O[C@H]([C@@H](O)CO)C(O)=C1O [ASCORBIC ACID],17.6 µg/mL,–,–,–,–,–,–

# Second part, led by results:
IC50 [1],SMILES,growth inhibition (GI) (Pseudomonas aeruginosa),growth inhibition (GI) (Klebsiella pneumoniae),growth inhibition (GI) (Bacillus subtilis),growth inhibition (GI) (Escherichia coli),growth inhibition (GI) (Staphylococcus aureus),growth inhibition (GI) (Bacillus cereus)
142.86 µg/mL,COc1ccccc1-c1oc2ccccc2c(=O)c1C,45%,62%,59%,52%,61%,51%
79.37 µg/mL,Cc1c(-c2ccccc2O)oc2ccccc2c1=O,43%,70%,83%,38%,70%,50%
104.16 µg/mL,Cc1c(-c2ccc(N(C)C)cc2)oc2ccccc2c1=O,46%,50%,55%,51%,58%,50%
58.82 µg/mL,Cc1c(-c2ccc(N(C)C)cc2)oc2cc(O)ccc2c1=O,51%,50%,50%,29%,55%,57%
156.25 µg/mL,Cc1ccccc1-c1oc2ccccc2c(=O)c1C,52%,40%,49%,40%,53%,50%
100 µg/mL,COc1ccc(-c2oc3ccccc3c(=O)c2C)cc1,46%,60%,46%,41%,66%,68%
131.57 µg/mL,Cc1c(-c2ccc([N+](=O)[O-])cc2)oc2ccccc2c1=O,57%,85%,60%,31%,77%,89%
113.64 µg/mL,Cc1c(-c2ccc(F)cc2)oc2ccccc2c1=O,48%,70%,81%,31%,73%,75%
200 µg/mL,COc1ccc2c(=O)c(C)c(-c3ccccc3)oc2c1,51%,41%,63%,34%,59%,50%
106.38 µg/mL,Cc1c(-c2ccccc2)oc2ccccc2c1=O [3-METHYL-2-PHENYL-4H-CHROMEN-4-ONE],48%,75%,44%,41%,47%,80%

# — ChEMBL document CHEMBL3045363, “Synthesis of 3-methylflavones and their antioxidant and antibacterial activities” (Med Chem Res, 2012)
